# Measurements published in ChEMBL document CHEMBL5226280, “Non-hydroxamate inhibitors of 1-deoxy-d-xylulose 5-phosphate reductoisomerase (DXR): A critical review and future perspective” (Eur J Med Chem, 2021).
# What was measured:
# [1] = target: T1, 1-deoxy-D-xylulose 5-phosphate reductoisomerase (Escherichia coli K-12, UniProt P45568); experiment: Inhibition of Escherichia coli DXR assessed as inhibition constant pre-incubated for 2 mins in presence of NADPH by spectrophotometric assay
# T1 sequence (P45568 whole entry): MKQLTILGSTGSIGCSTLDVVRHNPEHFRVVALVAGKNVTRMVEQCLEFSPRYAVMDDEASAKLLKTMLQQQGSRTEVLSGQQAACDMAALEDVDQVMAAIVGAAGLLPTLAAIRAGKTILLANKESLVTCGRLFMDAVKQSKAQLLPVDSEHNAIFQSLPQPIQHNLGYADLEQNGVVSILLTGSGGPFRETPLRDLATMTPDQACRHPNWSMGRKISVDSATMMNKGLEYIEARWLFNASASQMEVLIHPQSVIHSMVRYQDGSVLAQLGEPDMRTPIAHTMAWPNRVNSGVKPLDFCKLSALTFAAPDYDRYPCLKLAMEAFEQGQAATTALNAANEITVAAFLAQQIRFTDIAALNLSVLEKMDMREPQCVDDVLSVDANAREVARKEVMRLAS
# [2] = target: T1, 1-deoxy-D-xylulose 5-phosphate reductoisomerase; experiment: Inhibition of recombinant Escherichia coli DXR in presence of NADPH
# Plasmodium falciparum = experiment: Antiplasmodial activity against Plasmodium falciparum K1 infected in human erythrocyte assessed as assessed as inhibition of parasite growth; type: functional, organism-based
# Escherichia coli [3] = experiment: Antimicrobial activity against Escherichia coli BW25113 assessed as minimal inhibitory concentration incubated for 18 hrs by microdilution assay; type: functional
# Escherichia coli [4] = experiment: Antimicrobial activity against Escherichia coli deltaGlpT JW2234-2 assessed as minimal inhibitory concentration incubated for 18 hrs by microdilution assay; type: functional
# [5] = target: T1, 1-deoxy-D-xylulose 5-phosphate reductoisomerase; experiment: Inhibition of His-tagged Escherichia coli DXR using DXP as substrate incubated for 1 min in presence of NADPH by UV-Vis spectrophotometric assay
smiles,measurement,setting,value
CN(O)C(=O)CCCP(=O)(O)O,IC50,[1],0.048 µM
CN(O)C(=O)CCCC(=O)O,IC50,[2],25 µM
CS(=O)(=O)c1ccccc1NC(=O)CCCP(=O)(O)O,IC50,Plasmodium falciparum,> 64 µM
O=C(CCCP(=O)(O)O)Nc1ccccc1F,IC50,Plasmodium falciparum,> 64 µM
CN1CC(=O)OB(CCCP(=O)(O)O)OC(=O)C1,MIC90,Escherichia coli [3],63 µg/mL
same,MIC90,Escherichia coli [4],52 µg/mL
CC(=O)c1ccccc1NC(=O)CCCP(=O)(O)O,IC50,Plasmodium falciparum,> 64 µM
O=C(CCCP(=O)(O)O)NO,IC50,[1],0.17 µM
O=P(O)(O)CCCB(O)O,MIC90,Escherichia coli [3],53 µg/mL
same,MIC90,Escherichia coli [4],37 µg/mL
same,IC50,[5],125 µM
